Source: ChEMBL document CHEMBL1131296 (J Med Chem, 1998)

Key:
[1] = biological target: T1, Alpha-1D adrenergic receptor (Rattus norvegicus, UniProt P23944); assay: Antagonism of norepinephrine induced contraction of rat isolated thoracic aorta.; format: functional, tissue-based; conditions: read-out: pA2 (converted)
T1 sequence (P23944 whole entry): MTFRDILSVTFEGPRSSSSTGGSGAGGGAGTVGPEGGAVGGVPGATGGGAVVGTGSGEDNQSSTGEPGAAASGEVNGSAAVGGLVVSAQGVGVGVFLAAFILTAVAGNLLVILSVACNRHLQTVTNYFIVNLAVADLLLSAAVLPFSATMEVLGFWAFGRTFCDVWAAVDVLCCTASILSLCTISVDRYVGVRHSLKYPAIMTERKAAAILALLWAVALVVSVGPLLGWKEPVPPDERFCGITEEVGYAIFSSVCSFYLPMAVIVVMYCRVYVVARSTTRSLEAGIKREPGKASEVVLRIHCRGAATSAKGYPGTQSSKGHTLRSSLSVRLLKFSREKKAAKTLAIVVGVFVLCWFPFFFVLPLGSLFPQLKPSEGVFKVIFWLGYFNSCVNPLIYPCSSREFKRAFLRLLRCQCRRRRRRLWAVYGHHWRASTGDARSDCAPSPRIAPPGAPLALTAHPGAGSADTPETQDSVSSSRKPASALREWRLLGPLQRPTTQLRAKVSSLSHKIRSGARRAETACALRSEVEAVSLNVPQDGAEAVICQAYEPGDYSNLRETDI

[2] = biological target: T2, Adrenergic receptor alpha-2 (Rattus norvegicus, UniProt P22086+P19328+P22909); assay: Antagonism of the clonidine-induced depression of twitch responses of rat isolated prostatic vas deferens.
T2 sequence (P22086 whole entry): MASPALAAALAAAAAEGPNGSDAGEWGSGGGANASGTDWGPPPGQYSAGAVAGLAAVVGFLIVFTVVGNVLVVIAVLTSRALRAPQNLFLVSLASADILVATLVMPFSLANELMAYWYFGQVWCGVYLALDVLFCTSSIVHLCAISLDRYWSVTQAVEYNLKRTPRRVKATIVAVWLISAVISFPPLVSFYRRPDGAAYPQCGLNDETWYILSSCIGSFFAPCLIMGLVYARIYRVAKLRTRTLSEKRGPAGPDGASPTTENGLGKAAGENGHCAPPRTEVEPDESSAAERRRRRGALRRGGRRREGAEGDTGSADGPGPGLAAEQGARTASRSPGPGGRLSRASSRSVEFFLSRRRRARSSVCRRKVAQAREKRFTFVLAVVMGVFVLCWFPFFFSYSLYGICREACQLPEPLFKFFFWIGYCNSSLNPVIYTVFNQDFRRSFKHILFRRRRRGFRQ
T2 sequence (P19328 whole entry): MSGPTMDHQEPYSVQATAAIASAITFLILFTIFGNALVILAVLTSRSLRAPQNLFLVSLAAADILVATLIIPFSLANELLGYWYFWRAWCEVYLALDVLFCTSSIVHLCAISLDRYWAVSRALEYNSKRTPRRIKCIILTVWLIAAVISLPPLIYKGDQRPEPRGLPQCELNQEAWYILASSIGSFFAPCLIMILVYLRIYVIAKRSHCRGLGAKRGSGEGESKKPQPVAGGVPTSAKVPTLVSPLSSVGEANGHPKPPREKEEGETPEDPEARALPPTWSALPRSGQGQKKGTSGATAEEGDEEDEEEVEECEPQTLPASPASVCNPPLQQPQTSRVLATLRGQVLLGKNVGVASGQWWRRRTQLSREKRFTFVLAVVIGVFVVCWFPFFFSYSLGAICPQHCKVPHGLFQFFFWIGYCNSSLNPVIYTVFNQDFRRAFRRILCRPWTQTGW
T2 sequence (P22909 whole entry): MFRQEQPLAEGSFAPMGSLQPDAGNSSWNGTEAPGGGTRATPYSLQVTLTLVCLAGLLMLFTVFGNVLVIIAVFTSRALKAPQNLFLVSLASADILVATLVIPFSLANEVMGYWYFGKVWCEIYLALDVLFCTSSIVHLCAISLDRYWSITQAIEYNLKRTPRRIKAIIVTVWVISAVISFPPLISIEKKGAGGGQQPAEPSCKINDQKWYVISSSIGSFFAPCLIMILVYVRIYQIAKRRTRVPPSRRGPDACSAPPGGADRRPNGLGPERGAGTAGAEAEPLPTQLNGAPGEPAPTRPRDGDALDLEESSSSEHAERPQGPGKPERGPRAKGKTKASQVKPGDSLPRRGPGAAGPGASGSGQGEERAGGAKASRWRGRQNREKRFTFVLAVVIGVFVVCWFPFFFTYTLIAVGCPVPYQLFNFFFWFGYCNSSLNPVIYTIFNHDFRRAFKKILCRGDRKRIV

[3] = biological target: T3, Alpha-1A adrenergic receptor (Rattus norvegicus, UniProt P43140); assay: Antagonism of the norepinephrine induced contraction of rat isolated prostatic vas deferens.; format: functional; conditions: read-out: pA2 (converted)
T3 sequence (P43140 whole entry): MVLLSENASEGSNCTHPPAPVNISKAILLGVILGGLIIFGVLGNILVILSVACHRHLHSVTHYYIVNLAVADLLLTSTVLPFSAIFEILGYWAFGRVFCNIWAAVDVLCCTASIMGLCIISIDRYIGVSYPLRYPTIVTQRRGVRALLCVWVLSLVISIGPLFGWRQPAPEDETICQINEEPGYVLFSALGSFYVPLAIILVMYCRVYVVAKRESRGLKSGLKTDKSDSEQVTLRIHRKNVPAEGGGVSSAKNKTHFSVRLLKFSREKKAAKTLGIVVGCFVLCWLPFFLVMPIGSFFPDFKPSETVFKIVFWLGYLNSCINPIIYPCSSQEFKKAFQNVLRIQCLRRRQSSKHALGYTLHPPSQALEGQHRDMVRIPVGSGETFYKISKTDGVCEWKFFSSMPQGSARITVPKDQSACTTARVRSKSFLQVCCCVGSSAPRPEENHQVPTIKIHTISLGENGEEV

[4] = biological target: T4, Alpha-1B adrenergic receptor (Rattus norvegicus, UniProt P15823); assay: Antagonism of phenylephrine stimulated contraction of the rat isolated spleen.; format: functional, tissue-based; conditions: read-out: pA2 (converted)
T4 sequence (P15823 whole entry): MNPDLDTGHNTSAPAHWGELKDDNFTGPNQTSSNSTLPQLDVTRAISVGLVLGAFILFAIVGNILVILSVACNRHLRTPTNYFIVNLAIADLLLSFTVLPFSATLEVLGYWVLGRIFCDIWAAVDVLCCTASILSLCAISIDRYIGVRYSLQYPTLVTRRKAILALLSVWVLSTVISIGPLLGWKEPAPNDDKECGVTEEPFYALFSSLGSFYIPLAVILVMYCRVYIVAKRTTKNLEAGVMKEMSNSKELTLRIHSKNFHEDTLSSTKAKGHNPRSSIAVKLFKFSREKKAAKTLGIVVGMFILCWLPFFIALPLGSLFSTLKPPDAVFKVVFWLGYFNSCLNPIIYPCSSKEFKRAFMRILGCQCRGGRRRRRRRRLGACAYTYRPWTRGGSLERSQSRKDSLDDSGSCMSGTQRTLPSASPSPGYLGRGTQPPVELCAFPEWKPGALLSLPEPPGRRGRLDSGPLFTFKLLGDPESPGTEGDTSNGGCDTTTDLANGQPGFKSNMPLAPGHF

[5] = biological target: T5, Alpha-1B adrenergic receptor (Homo sapiens, UniProt P35368); assay: Binding affinity at human cloned Alpha-1B adrenergic receptor in chinese hamster ovary cells by [3H]prazosin displacement.; format: cell-based, CHO
T5 sequence (P35368 whole entry): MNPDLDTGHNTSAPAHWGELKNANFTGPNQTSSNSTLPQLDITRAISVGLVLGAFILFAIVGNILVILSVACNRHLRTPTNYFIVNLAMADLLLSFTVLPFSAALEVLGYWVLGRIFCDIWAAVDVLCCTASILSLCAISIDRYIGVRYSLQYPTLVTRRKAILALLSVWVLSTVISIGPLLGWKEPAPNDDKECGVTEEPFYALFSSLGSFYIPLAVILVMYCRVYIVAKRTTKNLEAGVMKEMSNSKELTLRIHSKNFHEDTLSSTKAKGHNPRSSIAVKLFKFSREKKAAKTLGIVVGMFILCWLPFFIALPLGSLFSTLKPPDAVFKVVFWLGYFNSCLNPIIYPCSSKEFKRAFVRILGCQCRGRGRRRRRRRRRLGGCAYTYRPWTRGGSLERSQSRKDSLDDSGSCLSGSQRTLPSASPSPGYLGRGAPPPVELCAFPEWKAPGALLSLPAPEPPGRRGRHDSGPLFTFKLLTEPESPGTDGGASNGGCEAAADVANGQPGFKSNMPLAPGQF

| SMILES | Kb [1] [nM] | pA2 [2] | Kb [3] [nM] | Kb [4] [nM] | Ki [5] [nM] |
| --- | --- | --- | --- | --- | --- |
| COc1cc2nc(N(C)CCCCCCN(C)C(=O)c3ccc(CCl)o3)nc(N)c2cc1OC | 0.407 | < 5 | 6.76 | 1.07 |  |
| CNCCCCCCN(C)Cc1ccc(C(=O)N(C)CCCCCCN(C)c2nc(N)c3cc(OC)c(OC)cc3n2)cc1 | 3.47 | 5.6 | 191 | 0.617 |  |
| COc1cc2nc(N(C)CCSSCCN(C)C(=O)c3ccc(CN(C)C)o3)nc(N)c2cc1OC | 6.03 | < 5 | 200 | 53.7 |  |
| COc1cc2nc(N(C)CCSSCCN(C)C(=O)c3ccc(CCl)o3)nc(N)c2cc1OC | 9.33 | < 5 | 16.6 | 42.7 |  |
| COc1cc2nc(N(C)CCCCCCN(C)C(=O)c3cccc(CN4CCSC4)c3)nc(N)c2cc1OC | 3.09 | 5.94 | 15.1 | 9.33 |  |
| COc1cc2nc(N(C)CCCCCCN(C)C(=O)c3ccc(CN(C)C)o3)nc(N)c2cc1OC | 5.89 | < 5 | 38.9 | 2.4 |  |
| COc1cc2nc(N(C)CCCCCCN(C)C(=O)c3ccccc3CCl)nc(N)c2cc1OC | 2.82 | 5.31 | 417 | 1.86 |  |

The remaining lines, values ahead:

| Kb [1] [nM] | pA2 [2] | Kb [3] [nM] | Kb [4] [nM] | Ki [5] [nM] | SMILES |
| --- | --- | --- | --- | --- | --- |
| 5.5 | < 5 | 91.2 | 13.2 |  | COc1cc2nc(N(C)CCCCCCN(C)C(=O)c3ccccc3CN(C)C)nc(N)c2cc1OC |
| 6.92 | 6.52 | 38 | 0.447 |  | COc1cc2nc(N(C)CCCCCCN(C)C(=O)c3ccccc3)nc(N)c2cc1OC |
|  | < 5 |  |  | 64.6 | COc1ccccc1N1CCN(CCN2C(=O)CC3(CCCC3)CC2=O)CC1 [BMY-7378] |
| 2.04 | 5.44 | 47.9 | 2.45 |  | COc1cc2nc(N(C)CCCCCCN(C)C(=O)c3cccc(CN)c3)nc(N)c2cc1OC |
| 14.5 | < 5 | 8.91 | 19.5 |  | CNCCCCCCN(C)Cc1cccc(C(=O)N(C)CCCCCCN(C)c2nc(N)c3cc(OC)c(OC)cc3n2)c1 |
| 6.76 | < 5 | 58.9 | 9.77 |  | COc1cc2nc(N(C)CCCCCCN(C)C(=O)c3ccc(CN4CCSC4)cc3)nc(N)c2cc1OC |
| 13.8 | 5.12 | 72.4 | 2.95 |  | COc1cc2nc(N(C)CCCCCCN(C)C(=O)c3ccc(CN(C)C)cc3)nc(N)c2cc1OC |
| 19.5 | 5.54 | 77.6 | 0.708 |  | COc1cc2nc(N(C)CCCCCCN(C)C(=O)c3ccc(CCl)cc3)nc(N)c2cc1OC |
| 3.16 | 5.47 | 10.7 | 0.676 |  | COc1cc2nc(N(C)CCCCCCN(C)C(=O)c3ccccc3CNCCCCCCN)nc(N)c2cc1OC |
| 51.3 | < 5 | 79.4 | 66.1 |  | COc1cc2nc(N(C)CCCCCCN(C)C(=O)c3cccc(CCl)c3)nc(N)c2cc1OC |
